The assay deals with T1, Interleukin-1 receptor-associated kinase 4 (Homo sapiens, UniProt Q9NWZ3).
T1 sequence (Q9NWZ3 whole entry): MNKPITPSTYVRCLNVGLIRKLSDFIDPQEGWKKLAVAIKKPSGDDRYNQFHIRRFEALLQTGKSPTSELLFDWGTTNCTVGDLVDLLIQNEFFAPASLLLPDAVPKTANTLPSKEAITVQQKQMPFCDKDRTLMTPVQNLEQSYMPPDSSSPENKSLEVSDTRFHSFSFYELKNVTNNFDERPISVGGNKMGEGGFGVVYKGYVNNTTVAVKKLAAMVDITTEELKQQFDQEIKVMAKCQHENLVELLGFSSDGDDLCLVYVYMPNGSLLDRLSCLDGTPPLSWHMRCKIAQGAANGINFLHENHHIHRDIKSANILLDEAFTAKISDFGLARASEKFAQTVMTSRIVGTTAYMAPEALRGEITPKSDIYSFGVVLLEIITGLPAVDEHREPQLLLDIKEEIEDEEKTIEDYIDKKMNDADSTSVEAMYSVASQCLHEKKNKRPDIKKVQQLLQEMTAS
In words: Kinase Assay: The kinase activity of IRAK-4 is determined by its ability to catalyze the phosphorylation of a fluorescent polypeptide substrate. The extent of phosphorylation is measured using the IMAP technology (Molecular Devices) where the phosphorylated fluorescent substrate binds to the large M(III)-based nanoparticles which reduces the rotational speed of the substrate and thus increases its fluorescent polarization (FP). 20 μl reaction mixture contains 10 mM TriHCl, pH 7.2, 0.5 nM GST tagged IRAK-4 (SignalChem), 100 nM fluorescent peptide substrate (RP7030, Molecular Devices), 100 μM ATP, 1 mM DTT, 1 mM MgCl2, and 0.01% Tween 20. The reaction is initiated by the addition of ATP. After incubation for 30 minutes at 25° C., 60 μl of Progressive IMAP Reagent (Molecular Devices) is added to stop the reaction. Change in RP7030's FP is determined by a FP reader (Analyst HT, LH, BioSystems).

Some results are limits rather than exact numbers.

A word on the IC50: it is the midpoint of a concentration-inhibition curve.

In the case of `Cc1cnc(-n2nc(C3CCNCC3)cc2NC(=O)c2cnn3cccnc23)nc1`, the concentration for half-maximal inhibition (IC50) is over 1000 nM. With `Cc1ccc(-n2nc(-c3cncc(N4CCN(C)CC4)c3)cc2NC(=O)c2cnn3cccnc23)cc1` the figure was under 1000 nM; with `Cc1ccc(-n2nc(C3CCCN(Cc4ccc(S(C)(=O)=O)cc4)C3)cc2NC(=O)c2cnn3cccnc23)cc1` (configuration not stated), under 100 nM; with `Cc1ccc(-n2nc(C3CCCN(Cc4ccc5c(c4)C(=O)NC5)C3)cc2NC(=O)c2cnn3cccnc23)cc1` (configuration not stated), under 1000 nM. With `Cc1ccc(-n2nc(C3CCN(S(C)(=O)=O)CC3)cc2NC(=O)c2cnn3cc(Br)cnc23)cc1` the figure was under 1000 nM; with `Cc1ccc(-n2nc(C3CCCN(CC4CCOC4)C3)cc2NC(=O)c2cnn3cccnc23)cc1` (configuration not stated), under 1000 nM. With `Cc1ccc(-n2nc(C3CCN(S(=O)(=O)C4CC4)CC3)cc2NC(=O)c2cnn3cccnc23)nc1` the figure was under 100 nM; with `COc1ncc(CN2CCCC(c3cc(NC(=O)c4cnn5cccnc45)n(-c4ccc(C)cc4)n3)C2)cn1` (configuration not stated), under 1000 nM; with `Cc1ccc(-n2nc(C3CCCN(Cc4ccccn4)C3)cc2NC(=O)c2cnn3cccnc23)cc1` (configuration not stated), under 1000 nM. With `Cc1ccc(-n2nc(C3CCN(S(C)(=O)=O)CC3)cc2NC(=O)c2cnn3cc(C)cnc23)cc1`, the IC50 was under 1000 nM.

As for `CC(=O)N1CCC(N2CCC(c3cc(NC(=O)c4cnn5cccnc45)n(-c4ccc(C)cc4)n3)CC2)CC1`, the IC50 was under 100 nM. The result for `COc1ccc(CN2CCCC(c3cc(NC(=O)c4cnn5cccnc45)n(-c4ccc(C)cc4)n3)C2)cn1` (configuration not stated) reads under 1000 nM; that for `CNC(C)c1ccc(-n2nc(C3CCN(S(C)(=O)=O)CC3)cc2NC(=O)c2cnn3cccnc23)nc1` (configuration not stated), under 1000 nM. The result for `Cc1ccc(-n2nc(C3CCCN(Cc4ncco4)C3)cc2NC(=O)c2cnn3cccnc23)cc1` (configuration not stated) reads under 1000 nM; that for `Cc1ccc(-n2nc(C3CCN(C(C)C(=O)N4CCCC4)CC3)cc2NC(=O)c2cnn3cccnc23)cc1` (configuration not stated), under 100 nM. The result for `O=C(Nc1cc(C2CCN(C3CCC3)CC2)nn1-c1ccc(C2CC2)cn1)c1cnn2cccnc12` reads under 100 nM; that for `Cc1ccc(-n2nc(C3CCN(C(C)C(C)C)CC3)cc2NC(=O)c2cnn3cccnc23)cc1` (configuration not stated), under 1000 nM.

For the compound `COc1ccc(-n2nc(C3CCN(S(C)(=O)=O)CC3)cc2NC(=O)c2cnn3cccnc23)nc1`, the IC50 was under 1000 nM.

For `CS(=O)(=O)N1CCC(c2cc(NC(=O)c3cnn4cccnc34)n(-c3ccccc3)n2)CC1`, the 50% inhibitory concentration (IC50) is under 1000 nM. As to `Cc1ccc(-n2nc(C3CCN(C4CCC(C(F)(F)F)CC4)CC3)cc2NC(=O)c2cnn3cccnc23)cc1` (configuration not stated), the IC50 was under 100 nM. With `Cc1ccc(-n2nc(-c3ccnc(CN4CCCCC4)c3)cc2NC(=O)c2cnn3cccnc23)cc1` the figure was under 100 nM. The result for `Cc1ccc(-n2nc(C3CCN(S(C)(=O)=O)CC3)cc2NC(=O)c2cnn3cc(Br)cnc23)nc1` reads under 100 nM.

Take `Cc1cnc(-n2nc(C3CCN(S(C)(=O)=O)CC3)cc2NC(=O)c2cnn3cccnc23)cn1`: the concentration for half-maximal inhibition (IC50) is over 1000 nM. The result for `Cc1ccc(-n2nc(C3CCCN(Cc4cnc(N(C)C)s4)C3)cc2NC(=O)c2cnn3cccnc23)cc1` (configuration not stated) reads under 1000 nM; that for `Cc1ccc(-n2nc(C3CCN(C)CC3)cc2NC(=O)c2cnn3cccnc23)c(F)c1`, under 1000 nM.

As for `CCOC(=O)N1CCC(N2CCC(c3cc(NC(=O)c4cnn5cccnc45)n(-c4ccc(C)cc4)n3)CC2)CC1`, the IC50 is under 100 nM. With `CS(=O)(=O)N1CCC(c2cc(NC(=O)c3cnn4cccnc34)n(-c3ccc(CO)cn3)n2)CC1` the figure was under 100 nM; with `C#Cc1cnc2c(C(=O)Nc3cc(C4CCN(S(C)(=O)=O)CC4)nn3-c3ccc(C)cn3)cnn2c1`, under 100 nM. The result for `Cc1ccc(-n2nc(C3CCN(C4CCN(C5CC5)CC4)CC3)cc2NC(=O)c2cnn3cccnc23)cc1` reads under 1000 nM; that for `Cc1ccc(-n2nc(C3CCCN(Cc4cccnc4F)C3)cc2NC(=O)c2cnn3cccnc23)cc1` (configuration not stated), under 1000 nM. In the case of `Cc1ccc(-n2nc(C3CCCN(Cc4cccnc4)C3)cc2NC(=O)c2cnn3cccnc23)cc1` (configuration not stated), the IC50 was under 1000 nM.

Regarding `Cc1ccc(-n2nc(C3CCCN(Cc4ccn[nH]4)C3)cc2NC(=O)c2cnn3cccnc23)cc1` (configuration not stated), the IC50 was under 100 nM. The result for `Cc1ccc(-n2nc(C3CCCN(Cc4cccc5c4CNC5=O)C3)cc2NC(=O)c2cnn3cccnc23)cc1` (configuration not stated) reads under 100 nM. The result for `Cc1ccc(-n2nc(C3CCCN(Cc4ccncc4)C3)cc2NC(=O)c2cnn3cccnc23)cc1` (configuration not stated) reads under 1000 nM; that for `Cc1ccc(-n2nc(C3CCN(CC(C)C)CC3)cc2NC(=O)c2cnn3cccnc23)nc1`, under 100 nM; that for `CCn1nccc1CN1CCCC(c2cc(NC(=O)c3cnn4cccnc34)n(-c3ccc(C)cc3)n2)C1` (configuration not stated), under 1000 nM. With `Cc1ccc(-n2nc(C3CCN(C4CNC4)CC3)cc2NC(=O)c2cnn3cccnc23)cc1` the figure was under 1000 nM; with `Cc1ccc(-n2nc(C3CCN(C(C)c4cccc(F)n4)CC3)cc2NC(=O)c2cnn3cccnc23)cc1` (configuration not stated), under 1000 nM. As to `Cc1ccc(-n2nc(C3CCN(C(C)C(=O)N4CCCCC4)CC3)cc2NC(=O)c2cnn3cccnc23)cc1` (configuration not stated), the half-maximal inhibitory concentration (IC50) was under 1000 nM.

Turning to `Cc1ccc(-n2nc(C3CCN(S(C)(=O)=O)C3)cc2NC(=O)c2cnn3cccnc23)cc1` (configuration not stated), the concentration for half-maximal inhibition (IC50) is under 1000 nM.

With `CS(=O)(=O)N1CCC(c2cc(NC(=O)c3cnn4cccnc34)n(CCN)n2)CC1`, the 50% inhibitory concentration (IC50) was under 1000 nM. On to `Cc1ccc(-n2nc(-c3ccc(S(=O)(=O)N4CCOCC4)cc3)cc2NC(=O)c2cnn3cccnc23)cc1`, for which the half-inhibitory concentration (IC50) was under 100 nM.

As for `Cc1ccc(-n2nc(C3CCCN(Cc4ccc(F)cn4)C3)cc2NC(=O)c2cnn3cccnc23)cc1` (configuration not stated), the half-maximal inhibitory concentration (IC50) is under 1000 nM. The result for `COc1ccc(CN2CCC(c3cc(NC(=O)c4cnn5cccnc45)n(-c4ccc(C)cc4)n3)CC2)cn1` reads under 1000 nM; that for `Cc1ccc(-n2nc(C3CCCN(Cc4cn[nH]c4)C3)cc2NC(=O)c2cnn3cccnc23)cc1` (configuration not stated), under 1000 nM. The result for `COc1ccc(-n2nc(C3CCNCC3)cc2NC(=O)c2cnn3cc(C4CC4)cnc23)cc1` reads under 1000 nM; that for `CS(=O)(=O)N1CCC(c2cc(NC(=O)c3cnn4cccnc34)n(-c3ccc(CN)cn3)n2)CC1`, under 100 nM.

The values are drawn from ChEMBL document CHEMBL3886319, “Amidopyrazole inhibitors of interleukin receptor-associated kinases” (2015).
